pIC50: −log10 of the molar value.
Experiments:
Rat NPY5 Receptor = target: T1, Rat NPY5 Receptor (Rattus norvegicus, UniProt Q63634); test: Rat NPY5 Receptor Binding Assay; conditions: for pIC50: [125I]PYY, read-out: rNPY5 IC50
T1 sequence (Q63634 1-445): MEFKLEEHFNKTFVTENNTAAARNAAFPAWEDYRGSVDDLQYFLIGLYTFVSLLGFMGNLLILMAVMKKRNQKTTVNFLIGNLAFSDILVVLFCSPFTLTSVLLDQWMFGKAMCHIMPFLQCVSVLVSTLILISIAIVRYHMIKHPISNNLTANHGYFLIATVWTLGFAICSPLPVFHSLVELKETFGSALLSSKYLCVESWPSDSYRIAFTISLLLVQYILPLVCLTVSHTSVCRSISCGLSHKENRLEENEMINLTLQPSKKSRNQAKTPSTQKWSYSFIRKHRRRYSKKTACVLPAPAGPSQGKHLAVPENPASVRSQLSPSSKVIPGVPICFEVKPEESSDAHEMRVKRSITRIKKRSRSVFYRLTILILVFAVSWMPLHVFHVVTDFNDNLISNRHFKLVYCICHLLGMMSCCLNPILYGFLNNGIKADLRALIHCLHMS

Human NPY5 Receptor = target: T2, Human NPY5 Receptor (Homo sapiens, UniProt Q15761); test: Human NPY5 Receptor Binding Assay; conditions: [125I]PYY; read-out: hNPY5 IC50
T2 sequence (Q15761 1-445): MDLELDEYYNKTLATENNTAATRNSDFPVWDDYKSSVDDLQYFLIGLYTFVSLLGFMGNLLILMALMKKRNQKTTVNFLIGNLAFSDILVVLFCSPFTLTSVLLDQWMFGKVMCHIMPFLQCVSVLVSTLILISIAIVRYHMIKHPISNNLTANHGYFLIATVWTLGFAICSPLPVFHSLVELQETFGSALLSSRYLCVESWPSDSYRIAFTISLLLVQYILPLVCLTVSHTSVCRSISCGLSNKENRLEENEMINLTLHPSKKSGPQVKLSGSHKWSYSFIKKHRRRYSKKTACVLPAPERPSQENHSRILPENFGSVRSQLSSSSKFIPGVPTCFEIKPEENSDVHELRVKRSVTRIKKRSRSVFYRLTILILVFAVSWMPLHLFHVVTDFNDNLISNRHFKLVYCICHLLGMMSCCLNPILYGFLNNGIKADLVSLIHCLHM

Row | Structure (SMILES) | inhibition at 10 µM (Rat NPY5 Receptor; 10 μM, values marked *, read-out: rNPY5 percent inhibition at 10 μM) | pIC50 (Human NPY5 Receptor) | pIC50 (Rat NPY5 Receptor)
1 | O=C(CSc1ncc[nH]1)Nc1ccc(C(=O)c2ccccc2)cc1 [Compound 10, N-(4-Benzoyl-phenyl)-2-(1H-imidazol-2-ylsulfanyl)-acetamide] | 97% |  | 
2 | Cc1ccnc(SCC(=O)Nc2ccc(C3CCCCC3)cc2)n1 [Compound 29] |  | 6.72 | 
3 | Cc1nc(SCC(=O)Nc2ccc(C3CCCCC3)cc2)n[nH]1 [Compound 73, N-(4-Cyclohexyl-phenyl)-2-(5-methyl-1H-[1,2,4]triazol-3-ylsulfanyl)-acetamide] |  | < 6.00 | 
4 | O=C(CSc1ncnc2ccccc12)Nc1ccc(C2CCCCC2)cc1 [Compound 74, N-(4-Cyclohexyl-phenyl)-2-(quinazolin-4-ylsulfanyl)-acetamide] |  | < 6.00 | 
5 | O=C(CSc1nccc(C(F)(F)F)n1)Nc1ccc(C2CCCCC2)cc1 [Compound 75, N-(4-Cyclohexyl-phenyl)-2-(4-trifluoromethylpyrimidin-2-ylsulfanyl)-acetamide] |  | < 6.00 | 
6 | Nc1cc(N)nc(SCC(=O)Nc2ccc(C3CCCCC3)cc2)n1 [Compound 76, N-(4-Cycyclohexyl-phenyl)-2-(4,6-diamino-pyrimidin-2-ylsulfanyl)-cetamide] |  | < 6.00 | 
7 | CCOc1ccc2nc(SCC(=O)Nc3ccc(C4CCCCC4)cc3)sc2c1 [Compound 77, N-(4-Cyclohexyl-phenyl)-2-(6-ethoxy-benzothiazol-2-ylsulfanyl)-acetamide] |  | < 6.00 | 
8 | Nc1nc(SCC(=O)Nc2ccc(C3CCCCC3)cc2)nc(O)c1N=O [Compound 78, 2-(4-Amino-6-hydroxy-5-nitroso-pyrimidin-2-ylsulfanyl)-N-(4-Cyclohexyl-phenyl)-acetamide] |  | < 6.00 | 
9 | O=C(CSc1nc2cc(Cl)ccc2s1)Nc1ccc(C2CCCCC2)cc1 [Compound 79] |  | < 6.00 | 
10 | Cc1cc(C)nc(SCC(=O)Nc2ccc(C3CCCCC3)cc2)n1 [Compound 80, N-(4-Cyclohexyl-phenyl)-2-(4,6-dimethyl-pyrimidin-2-ylsulfanyl)-acetamide] |  | < 6.00 | 
11 | Cn1nnnc1SCC(=O)NCCc1cccs1 [Compound 126, 2-(1-Methyl-1H-tetrazol-5-ylsulfanyl)-N-(2-thiophen-2-yl-ethyl)-acetamide] |  |  | < 6.00
12 | Cn1nnnc1SCC(=O)Nc1nc2ccccc2s1 [Compound 128, N-Benzothiazol-2-yl-2-(1-methyl-1H-tetrazol-5-ylsulfanyl)-acetamide] |  |  | < 6.00
13 | Cn1nnnc1SCC(=O)N1CCCCCC1 [Compound 129, 1-Azepan-1-yl-2-(1-methyl-1H-tetrazol-5-ylsulfanyl)-ethanone] |  |  | < 6.00
14 | Cn1nnnc1SCC(=O)Nc1cccc2c1Cc1ccccc1-2 [Compound 131, N-(9H-Fluoren-1-yl)-2-(1-methyl-1H-tetrazol-5-ylsulfanyl)-acetamide] |  |  | < 6.00
15 | O=C(COc1ccccc1)Nc1ccc(C2CCCCC2)cc1 [Compound 132, N-(4-Cyclohexyl-phenyl)-2-phenoxy-acetamide] |  |  | < 6.00
16 | CN1CCC(OCC(=O)Nc2ccc(C(=O)c3ccccc3)cc2)CC1 [Compound 133, N-(4-Benzoyl-phenyl)-2-(1-methyl-piperidin-4-yloxy)-acetamide] |  |  | < 6.00
17 | O=C(COc1ccccc1)Nc1ccc(C(=O)c2ccccc2)cc1 [Compound 134, N-(4-Benzoyl-phenyl)-2-phenoxy-acetamide] |  |  | < 6.00
18 | CN1CCC(OCC(=O)Nc2ccc(C3CCCCC3)cc2)CC1 [Compound 135, N-(4-Cyclohexyl-phenyl)-2-(1-methy-piperidin-4-yloxy)-acetamide] |  |  | < 6.00

Results, then the compound that gave them:

Row | inhibition at 10 µM (Rat NPY5 Receptor; 10 μM, values marked *, read-out: rNPY5 percent inhibition at 10 μM) | pIC50 (Human NPY5 Receptor) | pIC50 (Rat NPY5 Receptor) | Structure (SMILES)
19 |  |  | < 6.00 | Cc1nc(SCC(=O)Nc2ccc(C(=O)c3ccccc3)cc2)n[nH]1 [Compound 81, N-(4-Benzoyl-phenyl)-2-(5-methyl-1H-[1,2,4]triazol-3-ylsulfanyl)-acetamide]
20 |  |  | < 6.00 | O=C(CSc1ncnc2ccccc12)Nc1ccc(C(=O)c2ccccc2)cc1 [Compound 82, N-(4-Benzoyl-phenyl)-2-(quinazolin-4-ylsulfanyl)-acetamide]
21 |  | 6.68 | 6.70 | O=C(CSc1nccc(C(F)(F)F)n1)Nc1ccc(C(=O)c2ccccc2)cc1 [Compound 83, N-(4-Benzoyl-phenyl)-2-(4-trifluoromethylpyrimidin-2-ylsulfanyl)-acetamide]
22 |  |  | < 6.00 | Nc1cc(N)nc(SCC(=O)Nc2ccc(C(=O)c3ccccc3)cc2)n1 [Compound 84, N-(4-Benzoyl-phenyl)-2-(4,6-diamino-pyrimidin 2-ylsulfanyl)-acetamide]
23 |  | 6.70 | 6.66 | O=C(CSc1nc(-c2ccccc2)no1)Nc1ccc(C(=O)c2ccccc2)cc1 [Compound 85, N-(4-Benzoyl-phenyl)-2-(3-phenyl-[1,2,4]oxadiazol-ylsulfanyl)-acetamide]
24 |  | 6.77 | 6.82 | Cc1nnc(SCC(=O)Nc2ccc(C(=O)c3ccccc3)cc2)s1 [Compound 86, N-(4-Benzoyl-phenyl)-2-(5-methyl-[1,3,4]thiadiazol-2-ylsulfanyl)-acetamide]
25 |  | 7.00 | 6.92 | O=C(CSc1nnnn1-c1ccc(O)cc1)Nc1ccc(C(=O)c2ccccc2)cc1 [Compound 87, N-(4-Benzoyl-phenyl)-2-[1-(4-hydroxy-phenyl)-1H-tetrazol-5-ylsulfanyl]-acetamide]
26 |  |  | < 6.00 | O=C(CSc1ccnc2cc(C(F)(F)F)ccc12)Nc1ccc(C(=O)c2ccccc2)cc1 [Compound 88, N-(4-Benzoyl-phenyl)-2-(7-trifluoromethyl-quinolin-4-ylsulfanyl)-acetamide]
27 |  | 6.23 | 6.14 | O=C(CSc1nnc(-c2ccccc2)o1)Nc1ccc(C(=O)c2ccccc2)cc1 [Compound 89, N-(4-Benzoyl-phenyl)-2-(5-phenyl [1,3,4]oxadiazol-2-ylsulfanyl)-acetamide]
28 |  |  | < 6.00 | O=C(CSc1ccnc2cc(C(F)(F)F)ccc12)Nc1ccc(C2CCCCC2)cc1 [Compound 93, N-(4-Cyclohexyl-phenyl)-2-(7-trifluoromethyl-quinolin-4-ylsulfanyl)-acetamide]
29 |  |  | < 6.00 | O=C(CSc1ccc2ccccc2n1)Nc1ccc(C2CCCCC2)cc1 [Compound 95, N-(4-Cyclohexyl-phenyl)-2-(quinolin-2-ylsulfanyl)-acetamide]
30 |  |  | < 6.00 | O=C(CSc1ccc2ccccc2n1)Nc1ccc(C(=O)c2ccccc2)cc1 [Compound 100, N-(4-Benzoyl-phenyl)-2-(quinolin-2-ylsulanyl)-acetamide]
31 |  |  | < 6.00 | Nc1ccc(SCC(=O)Nc2ccc(C(=O)c3ccccc3)cc2)cc1 [Compound 103, 2-(4-Amino-phenylsulfanyl)-N-(4-benzoyl-phenyl)-acetamide]
32 |  |  | < 6.00 | Cc1cnc(SCC(=O)Nc2ccc(C(=O)c3ccccc3)cc2)nc1S [Compound 104, N-(4-Benzoyl-phenyl)-2-(4-mercapt-5-methyl-pyrimidin-2-ylsulfanyl)-acetamide]
33 |  |  | < 6.00 | Nc1nc(S)nc(SCC(=O)Nc2ccc(C(=O)c3ccccc3)cc2)n1 [Compound 105, 2-(4-Amino-mercapto-[1,3,5]triazin-2-ylsulfanyl)-N-(4-benzoyl-phenyl)-acetamide]
34 |  |  | < 6.00 | COc1cccc(SCC(=O)Nc2ccc(C(=O)c3ccccc3)cc2)c1 [Compound 106, N-(4-Benzoyl-phenyl)-2-(3-methoxy-phenylsulfanyl)-acetamide]
35 |  |  | < 6.00 | Cc1cc(C)c(CSCC(=O)Nc2ccc(C(=O)c3ccccc3)cc2)c(C)c1 [Compound 107, N-(4-Benzoyl-phenyl)-2-(2,4,6-trimethyl-benzylsulfanyl)-acetamide]
36 |  |  | < 6.00 | CSc1ccc(SCC(=O)Nc2ccc(C(=O)c3ccccc3)cc2)cc1 [Compound 108, N-(4-Benzoyl-phenyl)-2-(4-methylsulfanyl-phenylsulfanyl)-acetamide]
37 |  |  | < 6.00 | CSc1sc(-c2nnc(SCC(=O)Nc3ccc(C4CCCCC4)cc3)n2C)c2c1C=CCC2 [Compound 112, N-(4-Cyclohexyl-phenyl)-2-[4-methyl-5-(3-methylsulfanyl-6,7-dihydro-benzo[C]thiophen-1-yl)-4H-[1,2,4]triazol-3-ylsulfanyl]-acetamide]
38 |  |  | < 6.00 | COc1ccc(-c2nnc(SCC(=O)Nc3ccc(C4CCCCC4)cc3)n2-c2cccc(C(F)(F)F)c2)cc1 [Compound 113, N-(4-Cyclohexyl-phenyl)-2-[5-(4-methoxy-phenyl)-4-(3-trifluoromethyl-phenyl)-4-[1,2,4]triazol-3-ylsulfanyl]-acetamide]
39 |  |  | < 6.00 | O=C(CSc1nnc(CSCCOc2ccc(Cl)cc2Cl)o1)Nc1ccc(C2CCCCC2)cc1 [Compound 117]
40 |  |  | < 6.00 | O=C(CSc1n[nH]c(-c2ccco2)n1)Nc1ccc(C(=O)c2ccccc2)cc1 [Compound 118]
